Measurements reported in PubChem BioAssay (NCI).
Values joined by “and” are separate entries in the source; they are usually repeats but may differ in a detail not shown here. Equal entries are not always repeated.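 Assay format: 96-well plates, 48-hour exposure. GI50 is the concentration that inhibits growth by half. TGI marks complete inhibition of growth.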

Key:
Test in all cases: growth of human tumour cells (NCI), 48 h
[1] = test system: CAKI-1 renal
[2] = test system: UO-31 renal
[3] = test system: M14 melanoma
[4] = test system: IGROV1 ovarian
[5] = test system: HCT-15 colon
[6] = test system: NCI-H226 lung
[7] = test system: SN12C renal
[8] = test system: RXF 393 renal
[9] = test system: U251 CNS
[10] = test system: HCC-2998 colon

| Compound | GI50 [1] [µM] | TGI [1] [µM] | GI50 [2] [µM] | TGI [2] [µM] | GI50 [3] [µM] | TGI [3] [µM] | GI50 [4] [µM] | TGI [4] [µM] | GI50 [5] [µM] | TGI [5] | GI50 [6] [µM] | TGI [6] [µM] | GI50 [7] [µM] | TGI [7] [µM] | TGI [8] [µM] | TGI [9] | GI50 [8] [µM] | GI50 [9] [µM] | TGI [10] | GI50 [10] [µM] |
| --- | --- | --- | --- | --- | --- | --- | --- | --- | --- | --- | --- | --- | --- | --- | --- | --- | --- | --- | --- | --- |
| CCOP(=O)(OCC)C(NC(c1ccccc1)c1ccccc1)c1ccsc1 (stereo unspecified) | 16 | 33.2 | 33.1 | > 100 | 16.5 | 30.5 | 37.6 | > 100 | 16.1 | 84.6 µM | 13.7 | 28.8 | 16.7 | 30.3 |  |  |  |  |  |  |
| CC(C)c1ccc(C(O)(C(=O)O)c2ccc(C(C)C)cc2)cc1 |  | > 100 |  | > 100 |  | > 100 |  | > 100 |  | > 100 µM |  | 54.6 |  | > 100 | > 100 | 42.9 µM |  |  |  |  |
| Cc1ccc2c(c1)C(=O)/C(=C/c1cccc(OCC(=O)c3ccc(Cl)cc3)c1)CS2 | 12.4 | 37 | 2.93 | 18.3 | 4.07 | 27.4 | 5.65 | 20.4 | 2.74 | 15.3 µM | 14.9 | 31.4 | 14.6 | 62.7 | 34.8 | 13.6 µM | 16.8 | 3.14 |  |  |
| NS(=O)(=O)c1ccc(-n2nc(-c3ccccc3)cc2-c2cc(O)ccc2O)cc1 | > 100 | > 100 | > 100 | > 100 | 31.9 | 80.8 | > 100 | > 100 | > 100 | > 100 µM | > 100 | > 100 | > 100 | > 100 | > 100 | > 100 µM | > 100 | 46.4 |  |  |
| Nc1nc(N)c(CCCCc2ccccc2)c(/C=C/c2ccc([N+](=O)[O-])cc2)n1 |  | 31.6 |  | 8.51 |  | 9.24 |  | 20.2 |  | 7.09 µM |  | 55.6 |  | 8.96 |  | 11.4 µM |  |  | 9.04 µM |  |
| COc1ccc2c(c1)C(=O)/C(=C/c1cccc(OCC(=O)c3ccc([N+](=O)[O-])cc3)c1)CO2 | 3.85 | 10.4 | 1.47 | 4.02 | 2.19 | 4.32 | 1.48 | 3.86 | 2.17 | 6.92 µM | 7.06 | 23.3 | 2.92 | 11.4 | 4.32 | 3.16 µM | 1.89 | 1.6 |  |  |
| C=C(C)C1CC=C(C)C(O)([C@@]2(O)C[C@H](C(=C)C)CC=C2C)C1 (stereo partly specified) |  | 51.8 |  | 55.9 |  | 39.9 |  | 53.4 |  |  |  |  |  | 33.2 | 29.1 | 34.7 µM |  |  | 35.7 µM |  |
| Cc1nccc2c3ccc(OCc4cn(-c5ccc(Br)cc5)nn4)cc3n(CCCc3ccccc3)c12 |  |  | 1.41 | 3.01 | 1.14 | 2.47 | 6.44 | > 100 |  |  | 1.75 | 13.6 |  |  |  | 3.79 µM |  | 1.92 | > 100 µM | > 100 |
| CCC1=CCC(P(=O)(c2ccccc2)c2ccccc2)CC1C (stereo unspecified) |  | > 100 |  | 60.5 |  | > 100 |  | > 100 |  | > 100 µM |  | > 100 |  | > 100 | > 100 | > 100 µM |  |  |  |  |
| Cn1c2ccccc2c2c(=O)n(CCCC(=O)NCCc3cnc[nH]3)c3c(-c4ccccc4)nnn3c21 | 12 | 33.4 | 7.46 | 14.8 | 11.9 | 24.3 |  |  | 14.6 | 44.1 µM | > 50 | > 50 | 8.76 | 18.7 | 18.2 | 18.4 µM | 7.41 | 9.46 | 19.7 µM | 9.51 |
| CC[C@@]1(O)C(=O)OCc2c1cc1n(c2=O)Cc2cc3cccc(N)c3nc2-1 |  |  | 8.44 | > 100 | 9.27 | > 100 | 11.5 | 38.8 |  |  | 2.57 | 27.9 | 3.58 | > 100 | 94.7 | 18.8 µM | 7.1 | 3.03 | 48.1 µM | 16.6 |
| O=C1NC(c2cccc3ccccc23)Nc2ccccc21 (stereo unspecified) | 0.0282 | 1.82 | 0.0362 | > 100 | 0.0177 | 0.672 | 0.0636 | > 100 |  | 2.28 µM and 2.17 µM | 0.0238 |  | 0.0198 | > 100 |  | 0.3 µM and 0.83 µM |  | 0.0259 | 0.743 µM and 0.489 µM | 0.173 |
| CC1=C(C(=O)Nc2ccccc2C)C(c2ccccc2O)C(C(=O)Nc2ccccc2C)=C(C)N1 |  | > 100 |  | 38.4 |  | 39.8 |  | 37.5 |  | 29.4 µM |  | > 100 |  | 44 | 47.3 |  |  |  | 29.6 µM |  |
| C/C(CC(=O)Nc1cccc([N+](=O)[O-])c1)=N/NC(N)=S |  |  |  | > 100 |  | > 100 |  | > 100 |  |  |  | > 100 |  |  | > 100 | > 100 µM |  |  | > 100 µM |  |
| COC(=O)/C=C(C)/C=C/c1c(C)c(C(C)=O)c(C)n1C |  | > 100 |  | > 100 |  | > 100 |  | > 100 |  | > 100 µM |  | > 100 |  | > 100 |  | > 100 µM |  |  | > 100 µM |  |
| Cc1cc(C(=O)CC(Cl)=C(Cl)Cl)c(Cl)cc1Cl | 18 | 41.4 | 22.5 | 55.4 | 31.7 | 78.2 | 22 | 82.9 | 20 | 41.2 µM | 23.9 | 76.3 | 19.5 | 44.7 | 43.1 | 38.1 µM | 17.8 | 18.6 |  |  |
| CCCn1cc(/C=N\N=C2\C(=O)Nc3ccc(C)cc32)c2ccccc21 |  |  | 2.28 | 61.8 | 1.92 | 4.7 | 3.38 | 63.1 | 2.63 | 42.2 µM | 2.95 | 20.6 | 3.2 | 75.9 | 7.94 | 17.3 µM | 2.17 | 3.51 | 5.14 µM | 2.09 |
